Measurements published in ChEMBL document CHEMBL1201862, “PubChem BioAssay data set” (2004).
Calls of active or inactive are those of the source.

Experiments:
[1] = target: T1, Caspase-3 (Homo sapiens, UniProt P42574); assay type: functional;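 also: Dose-response selectivity test against caspase-3 for candidate inhibitors of sentrin-specific proteases (SENPs)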
T1 sequence (P42574 whole entry): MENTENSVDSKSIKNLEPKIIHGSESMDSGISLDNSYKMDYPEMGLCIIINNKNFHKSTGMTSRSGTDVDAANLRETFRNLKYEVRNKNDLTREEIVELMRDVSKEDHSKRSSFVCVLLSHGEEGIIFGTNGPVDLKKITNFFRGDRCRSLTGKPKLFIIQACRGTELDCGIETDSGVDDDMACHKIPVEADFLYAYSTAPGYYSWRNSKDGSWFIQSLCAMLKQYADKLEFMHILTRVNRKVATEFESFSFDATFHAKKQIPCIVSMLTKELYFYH

[2] = target: T2, Serine/threonine-protein phosphatase (Homo sapiens, UniProt Q9BPW0); assay: PP5 phosphatase inhibitors, dose response, biochemical, fluorescence (AID 2395)
T2 sequence (Q9BPW0 whole entry): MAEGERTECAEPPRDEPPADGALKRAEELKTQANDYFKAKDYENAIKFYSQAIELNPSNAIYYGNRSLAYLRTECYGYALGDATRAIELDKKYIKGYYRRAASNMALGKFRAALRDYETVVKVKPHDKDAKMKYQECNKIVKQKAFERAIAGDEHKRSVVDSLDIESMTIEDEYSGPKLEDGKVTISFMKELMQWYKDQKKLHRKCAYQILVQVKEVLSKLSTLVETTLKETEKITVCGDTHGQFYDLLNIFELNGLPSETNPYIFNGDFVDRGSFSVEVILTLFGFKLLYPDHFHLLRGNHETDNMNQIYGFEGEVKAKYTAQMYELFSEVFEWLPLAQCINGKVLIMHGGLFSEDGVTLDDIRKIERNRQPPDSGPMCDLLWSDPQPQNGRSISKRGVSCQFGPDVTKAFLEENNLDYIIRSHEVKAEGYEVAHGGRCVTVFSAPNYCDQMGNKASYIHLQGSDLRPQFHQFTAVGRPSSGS

[3] = target: T3, Mannose-6-phosphate isomerase (Homo sapiens, UniProt P34949); assay: human PMI inhibitors, high substrate, primary screen, biochemical, fluorescence intensity, high mannose 6-phosphate (AID 1220)
T3 sequence (P34949 whole entry): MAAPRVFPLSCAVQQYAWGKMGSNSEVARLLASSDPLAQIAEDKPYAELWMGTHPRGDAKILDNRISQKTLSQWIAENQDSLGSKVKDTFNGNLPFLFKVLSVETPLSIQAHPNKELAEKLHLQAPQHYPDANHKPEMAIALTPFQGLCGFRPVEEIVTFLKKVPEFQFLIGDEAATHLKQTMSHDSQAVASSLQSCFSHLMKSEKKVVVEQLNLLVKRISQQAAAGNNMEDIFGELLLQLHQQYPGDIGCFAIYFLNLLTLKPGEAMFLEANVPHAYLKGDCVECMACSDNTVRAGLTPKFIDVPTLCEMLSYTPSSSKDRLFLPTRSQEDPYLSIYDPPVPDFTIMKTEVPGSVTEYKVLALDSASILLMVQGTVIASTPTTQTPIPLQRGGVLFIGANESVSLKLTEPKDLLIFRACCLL

[4] = test system: A-375; assay: A375 melanoma cell viability reduction, dose response, counter-screen for MITF modulator project, cherry-pick samples, set 2 (AID 540335); assay type: functional, cell-based; conditions: Homo sapiens
[5] = target: Wee1-like protein kinase (Homo sapiens, UniProt P30291); assay: Dose Response Cell-based Assay for Inhibitors of Wee1 Degradation. [Related pubchem assays: 1410, 1321 ]; assay type: functional
Wee1-like protein kinase, sequence (P30291 whole entry): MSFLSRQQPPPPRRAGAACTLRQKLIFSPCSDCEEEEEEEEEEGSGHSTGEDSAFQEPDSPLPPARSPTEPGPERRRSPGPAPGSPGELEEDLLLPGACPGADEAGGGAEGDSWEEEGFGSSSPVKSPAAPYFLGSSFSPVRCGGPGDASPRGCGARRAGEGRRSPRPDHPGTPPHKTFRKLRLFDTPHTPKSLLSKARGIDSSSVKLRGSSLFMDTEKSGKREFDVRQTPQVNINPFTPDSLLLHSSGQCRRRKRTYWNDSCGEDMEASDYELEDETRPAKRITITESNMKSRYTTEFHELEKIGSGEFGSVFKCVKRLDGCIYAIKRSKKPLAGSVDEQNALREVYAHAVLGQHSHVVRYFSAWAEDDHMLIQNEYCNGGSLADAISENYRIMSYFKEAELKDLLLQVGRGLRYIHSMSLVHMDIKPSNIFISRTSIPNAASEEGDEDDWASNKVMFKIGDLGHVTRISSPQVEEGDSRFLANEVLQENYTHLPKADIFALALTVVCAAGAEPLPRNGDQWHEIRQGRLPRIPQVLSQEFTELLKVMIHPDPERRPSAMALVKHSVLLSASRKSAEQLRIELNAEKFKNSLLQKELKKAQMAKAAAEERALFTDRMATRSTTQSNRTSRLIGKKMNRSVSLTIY

[6] = target: Endoribonuclease toxin MazF (Escherichia coli K-12, UniProt P0AE70); assay: fluorescent RNA oligo signal without MazF, dose response, counter-screen for MazEF activator project, biochemical, fluorescence, single-stranded RNase substrate (AID 588502); assay type: functional
Endoribonuclease toxin MazF, sequence (P0AE70 whole entry): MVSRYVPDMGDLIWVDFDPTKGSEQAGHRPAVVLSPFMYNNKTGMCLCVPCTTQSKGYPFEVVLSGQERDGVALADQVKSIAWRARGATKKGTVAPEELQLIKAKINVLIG

[7] = target: Beta Lactamase (Pseudomonas aeruginosa, UniProt Q932Y6); assay: beta-lactamase reporter inhibitor potency, dose response, artefact control for TLR9-MyD88 binding inhibitor project, BLA reporter cells, FRET fluorescence (AID 588341); assay type: cell-based;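 also: cell based assay in CHO-K1 cells stably expressing beta-lactamase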
Beta Lactamase, sequence (Q932Y6 whole entry): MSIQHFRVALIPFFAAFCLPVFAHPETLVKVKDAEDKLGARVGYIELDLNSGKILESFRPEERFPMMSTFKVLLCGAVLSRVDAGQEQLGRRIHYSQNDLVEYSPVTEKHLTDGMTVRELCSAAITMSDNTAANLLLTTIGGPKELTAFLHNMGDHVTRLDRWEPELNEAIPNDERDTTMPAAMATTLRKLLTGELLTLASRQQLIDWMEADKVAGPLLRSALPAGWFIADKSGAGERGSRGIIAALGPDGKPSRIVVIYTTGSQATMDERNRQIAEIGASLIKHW

[8] = test system: HEK293; assay: cytotoxicity in HEK293T NF-kB-Luc cells, SAR follow-up, cytotoxicity control for NF-kB activator project, cell-based, resazurin fluorescence (AID 493251); assay type: functional; conditions: Homo sapiens
[9] = target: T4, Heat shock factor protein 1 (Mus musculus, UniProt P38532); assay: inhibition of MG132-induced HSE-luciferase signal, confirmation, cell-based, NIH3T3, luminescence, dose retest (AID 2382); assay type: functional;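 also: NIH3T3 fibroblasts with HSF1-driven luciferase reporter stressed by proteasome inhibitor MG132; luminescence from HSF1-driven luciferase expression after 8 hours of MG132 stress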
T4 sequence (P38532 whole entry): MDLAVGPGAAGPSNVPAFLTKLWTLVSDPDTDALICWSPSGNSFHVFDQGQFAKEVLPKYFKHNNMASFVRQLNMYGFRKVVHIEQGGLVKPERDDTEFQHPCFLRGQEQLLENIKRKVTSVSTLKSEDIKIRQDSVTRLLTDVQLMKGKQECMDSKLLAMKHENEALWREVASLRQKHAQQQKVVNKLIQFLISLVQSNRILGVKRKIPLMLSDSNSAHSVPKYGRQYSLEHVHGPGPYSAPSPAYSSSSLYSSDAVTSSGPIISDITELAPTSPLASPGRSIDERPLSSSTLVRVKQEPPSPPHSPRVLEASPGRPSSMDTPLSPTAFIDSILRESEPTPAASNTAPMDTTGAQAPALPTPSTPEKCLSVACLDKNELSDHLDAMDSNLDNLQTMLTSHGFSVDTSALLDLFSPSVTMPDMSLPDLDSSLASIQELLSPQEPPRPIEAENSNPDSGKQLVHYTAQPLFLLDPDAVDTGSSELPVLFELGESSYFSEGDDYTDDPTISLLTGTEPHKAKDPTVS

[10] = inhibitors of intracellular T. cruzi replication, confirmation, NIH3T3 host cells, beta-gal luminescence (AID 2044); assay type: functional, cell-based;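 also: intracellular parasites grown in NIH/3T3 mouse fibroblasts as host cells; luminescent beta-galactosidase reporter signal from transgenic T. cruzi replicating inside host cells; inhibitors lower the luminescence signal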
[11] = target: Small ubiquitin-related modifier 1 (Homo sapiens, UniProt P63165); assay: inhibitors of SUMO1 peptide binding, dose response, biochemical, fluorescence polarization, uHTS hits (AID 624382); assay type: functional; conditions: read-out: IC50_Mean
Small ubiquitin-related modifier 1, sequence (P63165 whole entry): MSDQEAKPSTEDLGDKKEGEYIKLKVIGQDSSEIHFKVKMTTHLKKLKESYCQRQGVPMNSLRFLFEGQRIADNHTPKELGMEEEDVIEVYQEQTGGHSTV

[12] = target: T5, Neuropeptide Y receptor type 1 (Homo sapiens, UniProt P25929); assay: Fluorescence-based counterscreen for agonists of NPY-Y2: cell-based high-throughput dose response assay for agonists of NPY-Y1.; assay type: functional
T5 sequence (P25929 whole entry): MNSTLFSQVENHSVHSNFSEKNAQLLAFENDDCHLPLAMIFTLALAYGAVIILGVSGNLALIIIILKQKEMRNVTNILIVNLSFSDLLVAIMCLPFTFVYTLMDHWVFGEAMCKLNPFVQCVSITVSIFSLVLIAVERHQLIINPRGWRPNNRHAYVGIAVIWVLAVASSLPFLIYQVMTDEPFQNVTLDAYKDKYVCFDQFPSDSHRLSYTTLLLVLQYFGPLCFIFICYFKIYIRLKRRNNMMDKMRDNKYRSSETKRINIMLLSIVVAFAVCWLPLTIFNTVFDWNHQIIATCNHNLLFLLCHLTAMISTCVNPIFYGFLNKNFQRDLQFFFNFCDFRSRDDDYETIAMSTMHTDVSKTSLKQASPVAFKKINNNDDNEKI

[13] = target: Fatty acid synthase (Homo sapiens, UniProt P49327); assay: FAS thioesterase domain inhibitors, dose response, biochemical, kinetic fluorescence intensity (AID 624326); assay type: functional;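 also: rate of fluorescence rise from hydrolysis of a fluorogenic O-methyl fluorescein ester substrate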
Fatty acid synthase, sequence (P49327 whole entry, the tested form may be a part): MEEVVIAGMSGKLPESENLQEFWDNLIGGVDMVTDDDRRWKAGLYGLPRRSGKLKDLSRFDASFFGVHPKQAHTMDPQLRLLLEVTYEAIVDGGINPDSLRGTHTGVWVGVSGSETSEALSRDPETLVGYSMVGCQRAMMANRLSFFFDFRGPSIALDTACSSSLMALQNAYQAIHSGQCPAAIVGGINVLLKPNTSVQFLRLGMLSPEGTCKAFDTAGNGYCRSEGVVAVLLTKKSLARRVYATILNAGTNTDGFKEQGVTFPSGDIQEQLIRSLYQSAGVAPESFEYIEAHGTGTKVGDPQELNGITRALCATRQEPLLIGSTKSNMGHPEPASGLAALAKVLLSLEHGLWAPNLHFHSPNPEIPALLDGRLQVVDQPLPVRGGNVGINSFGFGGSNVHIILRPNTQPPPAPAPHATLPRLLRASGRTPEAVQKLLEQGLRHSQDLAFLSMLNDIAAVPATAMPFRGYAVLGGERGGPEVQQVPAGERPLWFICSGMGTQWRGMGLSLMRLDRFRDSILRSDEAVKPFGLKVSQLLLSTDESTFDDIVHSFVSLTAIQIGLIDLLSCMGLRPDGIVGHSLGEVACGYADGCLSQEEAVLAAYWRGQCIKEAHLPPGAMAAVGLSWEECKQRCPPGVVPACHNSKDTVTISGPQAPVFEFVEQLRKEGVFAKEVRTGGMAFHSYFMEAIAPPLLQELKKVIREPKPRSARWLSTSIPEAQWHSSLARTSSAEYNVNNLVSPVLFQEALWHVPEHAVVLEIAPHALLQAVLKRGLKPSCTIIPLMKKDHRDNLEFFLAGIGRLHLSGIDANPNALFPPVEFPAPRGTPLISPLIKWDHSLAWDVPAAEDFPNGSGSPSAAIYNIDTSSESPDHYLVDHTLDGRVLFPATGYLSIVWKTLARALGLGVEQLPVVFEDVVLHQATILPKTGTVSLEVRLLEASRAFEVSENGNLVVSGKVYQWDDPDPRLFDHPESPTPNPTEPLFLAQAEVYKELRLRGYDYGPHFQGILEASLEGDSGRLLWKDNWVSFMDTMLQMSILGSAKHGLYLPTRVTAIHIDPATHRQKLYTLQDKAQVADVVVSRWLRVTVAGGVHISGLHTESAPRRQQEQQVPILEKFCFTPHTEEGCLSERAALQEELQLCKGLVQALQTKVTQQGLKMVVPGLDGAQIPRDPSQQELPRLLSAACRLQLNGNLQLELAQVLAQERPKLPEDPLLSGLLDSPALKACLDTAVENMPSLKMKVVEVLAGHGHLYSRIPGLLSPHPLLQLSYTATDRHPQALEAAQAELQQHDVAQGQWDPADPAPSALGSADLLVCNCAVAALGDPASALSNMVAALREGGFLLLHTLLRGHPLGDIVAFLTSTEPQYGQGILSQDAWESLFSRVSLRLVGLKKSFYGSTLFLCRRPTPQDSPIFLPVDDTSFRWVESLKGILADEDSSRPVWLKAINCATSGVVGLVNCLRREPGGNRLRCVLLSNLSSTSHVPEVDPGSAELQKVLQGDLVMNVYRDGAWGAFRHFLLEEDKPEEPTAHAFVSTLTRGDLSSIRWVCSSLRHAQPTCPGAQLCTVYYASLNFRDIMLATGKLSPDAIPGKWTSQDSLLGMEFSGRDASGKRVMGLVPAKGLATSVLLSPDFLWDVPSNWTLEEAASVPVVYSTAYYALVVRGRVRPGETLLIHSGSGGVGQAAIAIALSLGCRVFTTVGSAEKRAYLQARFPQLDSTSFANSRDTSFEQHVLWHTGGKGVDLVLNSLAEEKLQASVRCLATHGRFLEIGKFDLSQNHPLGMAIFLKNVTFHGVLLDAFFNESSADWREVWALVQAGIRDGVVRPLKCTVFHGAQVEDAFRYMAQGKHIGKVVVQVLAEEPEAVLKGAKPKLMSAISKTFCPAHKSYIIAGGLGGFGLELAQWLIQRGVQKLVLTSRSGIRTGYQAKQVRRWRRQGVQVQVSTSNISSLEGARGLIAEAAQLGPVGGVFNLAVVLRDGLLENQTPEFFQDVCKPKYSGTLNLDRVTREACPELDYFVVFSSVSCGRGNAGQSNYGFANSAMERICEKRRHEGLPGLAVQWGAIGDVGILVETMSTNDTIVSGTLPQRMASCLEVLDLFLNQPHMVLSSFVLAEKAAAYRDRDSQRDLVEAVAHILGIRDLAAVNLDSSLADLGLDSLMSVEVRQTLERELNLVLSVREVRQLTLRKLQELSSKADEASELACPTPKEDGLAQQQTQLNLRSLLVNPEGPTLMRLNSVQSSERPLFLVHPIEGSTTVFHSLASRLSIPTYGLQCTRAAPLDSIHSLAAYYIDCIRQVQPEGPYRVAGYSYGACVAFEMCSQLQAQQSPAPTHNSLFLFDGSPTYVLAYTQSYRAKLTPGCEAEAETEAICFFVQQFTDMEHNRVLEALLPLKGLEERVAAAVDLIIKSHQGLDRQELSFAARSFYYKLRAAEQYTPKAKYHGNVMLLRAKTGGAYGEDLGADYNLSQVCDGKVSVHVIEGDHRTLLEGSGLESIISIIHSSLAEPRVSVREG

[14] = HeLa 4N DNA content increase, dose response, cell-based, IC50 (AID 1117351); assay type: functional

N#Cc1c(N2CCCCC2)nc(N)c2c(N)nc(SCC(=O)O)cc12
IC50 [1]: 33.7 µM (active)
IC50 [2]: > 7.45 µM (active)

CC1(C)Cc2ccccc2C2=NNC(=O)C2=N1
IC50 [3]: 14.1 µM (active)
AC50 [4]: 35.3 µM (active)

O=[N+]([O-])c1ccc(Sc2cccc[n+]2[O-])c2nonc12
EC50 [5]: > 1.84 µM (active)
EC50 [6]: > 99 µM (inactive)
IC50 [7]: 7.63 µM (active)

CCCC(=O)NC(c1ccc(C(C)C)cc1)c1ccc2cccnc2c1O (centres undefined)
IC50 [8]: 24.8 µM (inactive)
EC50 [9]: 1.63 µM (active)
EC50 [10]: 0.227 µM (active)

Oc1c(Cl)cc(Cl)c(Cl)c1Cc1c(O)c(Cl)cc(Cl)c1Cl [HEXACHLOROPHENE]
IC50 [11]: 5.63 µM (active)
EC50 [12]: 9.8 µM (active)
IC50 [13]: 5.68 µM (active)
IC50 [14]: > 10 µM (inactive)
